In patent US8211935B2, “Heterocyclic derivatives for modulation of calcium channels” (Vertex Pharmaceuticals Incorporated, priority 2004, dated 2012) one finds IC50 data, which are given here for 56 molecules.

The target in this assay is T1, CaV2.2 (Homo sapiens, UniProt Q00975).
T1 construct: expressed in transfected cells; host or cells: HEK293
Nature of the assay: VIPR optical membrane potential assay with electrical stimulation. The class given is cell-based. The method, then: Antagonist properties of test compounds were assessed as follows. Cells expressing the CaV of interest were placed into microtiter plates. After an incubation period, the cells were stained with fluorescent dyes sensitive to the transmembrane potential. The test compounds were added to the microtiter plate. The cells were stimulated with electrical means to evoke a CaV dependent membrane potential change from unblocked channels, which was detected and measured with trans-membrane potential-sensitive dyes. Antagonists were detected as a decreased membrane potential response to the stimulus.
VIPR® Optical Membrane Potential Assay Method with Electrical Stimulation
The following is an example of how CaV2.2 inhibition activity is measured using the optical membrane potential method. Other subtypes are performed in an analogous mode in a cell line expressing the CaV of interest.
HEK293 cells stably expressing CaV2.2 are plated into 96-well microtiter plates. After an appropriate incubation period, the cells are stained with the voltage sensitive dyes CC2-DMPE/DiSBAC2(3) as follows.
2×CC2-DMPE=20 μM CC2-DMPE: 10 mM CC2-DMPE is vortexed with an equivalent volume of 10% Pluronic, followed by vortexing in required amount of HBSS containing 10 mM HEPES. Each cell plate will require 5 mL of 2×CC2-DMPE. 50 μL of 2×CC2-DMPE is added to wells containing washed cells, resulting in a 10 μM final staining concentration. The cells are stained for 30 minutes in the dark at RT.
Vortex in required amount of Bath X with beta-cyclodextrin. Each 96 well cell plate will require 5 ml of 2×CC2DMPE. Wash plate with ELx405 with Bath X, leaving a residual volume of 50 μL/well. Add 50 μL of 2×CC2DMPE & DISBAC6(3) to each well. Stain for 30 minutes in the dark at RT.
Allow solution to sit for 10 minutes. Slowly mix in 370 mM BaCl2. This solution can be used to solvate compound plates. Note that compound plates are made at 1.5× drug concentration and not the usual 2×. Wash CC2 stained plate, again, leaving residual volume of 50 pt. Add 100 uL/well of the AY17 solution. Stain for 15 minutes in the dark at RT. Run plate on the optical reader.
The instrument comprises a microtiter plate handler, an optical system for exciting the coumarin dye while simultaneously recording the coumarin and oxonol emissions, a waveform generator, a current- or voltage-controlled amplifier, and a device for inserting electrodes in well. Under integrated computer control, this instrument passes user-programmed electrical stimulus protocols to cells within the wells of the microtiter plate.
Insert or use electrodes into each well to be assayed.
Use the current-controlled amplifier to deliver stimulation wave pulses for 3-5 s. Two seconds of pre-stimulus recording are performed to obtain the un-stimulated intensities. Five seconds of post-stimulation recording are performed to examine the relaxation to the resting state.
Data are analyzed and reported as normalized ratios of background-subtracted emission intensities measured in the 460 nm and 580 nm channels. Background intensities are then subtracted from each assay channel. Background intensities are obtained by measuring the emission intensities during the same time periods from identically treated assay wells in which there are no cells. The response as a function of time is then reported as the ratios obtained using the following formula: […]
The data is further reduced by calculating the initial (Ri) and final (Rf) ratios. These are the average ratio values during part or all of the pre-stimulation period, and during sample points during the stimulation period. The response to the stimulus R=Rf/Ri is then calculated.
Control responses are obtained by performing assays in the presence of a compound with the desired properties (positive control), such as mibefradil, and in the absence of pharmacological agents (negative control). Responses to the negative (N) and positive (P) controls are calculated as above.

Where [1] appears, read: Table 3, biological assay data, read-out: IC50.

The structures appear in SMILES notation. Like-named read-outs stand apart in the source and are kept apart here. A value given as a limit tells only on which side of the number the result lay.

T1 sequence (Q00975 whole entry): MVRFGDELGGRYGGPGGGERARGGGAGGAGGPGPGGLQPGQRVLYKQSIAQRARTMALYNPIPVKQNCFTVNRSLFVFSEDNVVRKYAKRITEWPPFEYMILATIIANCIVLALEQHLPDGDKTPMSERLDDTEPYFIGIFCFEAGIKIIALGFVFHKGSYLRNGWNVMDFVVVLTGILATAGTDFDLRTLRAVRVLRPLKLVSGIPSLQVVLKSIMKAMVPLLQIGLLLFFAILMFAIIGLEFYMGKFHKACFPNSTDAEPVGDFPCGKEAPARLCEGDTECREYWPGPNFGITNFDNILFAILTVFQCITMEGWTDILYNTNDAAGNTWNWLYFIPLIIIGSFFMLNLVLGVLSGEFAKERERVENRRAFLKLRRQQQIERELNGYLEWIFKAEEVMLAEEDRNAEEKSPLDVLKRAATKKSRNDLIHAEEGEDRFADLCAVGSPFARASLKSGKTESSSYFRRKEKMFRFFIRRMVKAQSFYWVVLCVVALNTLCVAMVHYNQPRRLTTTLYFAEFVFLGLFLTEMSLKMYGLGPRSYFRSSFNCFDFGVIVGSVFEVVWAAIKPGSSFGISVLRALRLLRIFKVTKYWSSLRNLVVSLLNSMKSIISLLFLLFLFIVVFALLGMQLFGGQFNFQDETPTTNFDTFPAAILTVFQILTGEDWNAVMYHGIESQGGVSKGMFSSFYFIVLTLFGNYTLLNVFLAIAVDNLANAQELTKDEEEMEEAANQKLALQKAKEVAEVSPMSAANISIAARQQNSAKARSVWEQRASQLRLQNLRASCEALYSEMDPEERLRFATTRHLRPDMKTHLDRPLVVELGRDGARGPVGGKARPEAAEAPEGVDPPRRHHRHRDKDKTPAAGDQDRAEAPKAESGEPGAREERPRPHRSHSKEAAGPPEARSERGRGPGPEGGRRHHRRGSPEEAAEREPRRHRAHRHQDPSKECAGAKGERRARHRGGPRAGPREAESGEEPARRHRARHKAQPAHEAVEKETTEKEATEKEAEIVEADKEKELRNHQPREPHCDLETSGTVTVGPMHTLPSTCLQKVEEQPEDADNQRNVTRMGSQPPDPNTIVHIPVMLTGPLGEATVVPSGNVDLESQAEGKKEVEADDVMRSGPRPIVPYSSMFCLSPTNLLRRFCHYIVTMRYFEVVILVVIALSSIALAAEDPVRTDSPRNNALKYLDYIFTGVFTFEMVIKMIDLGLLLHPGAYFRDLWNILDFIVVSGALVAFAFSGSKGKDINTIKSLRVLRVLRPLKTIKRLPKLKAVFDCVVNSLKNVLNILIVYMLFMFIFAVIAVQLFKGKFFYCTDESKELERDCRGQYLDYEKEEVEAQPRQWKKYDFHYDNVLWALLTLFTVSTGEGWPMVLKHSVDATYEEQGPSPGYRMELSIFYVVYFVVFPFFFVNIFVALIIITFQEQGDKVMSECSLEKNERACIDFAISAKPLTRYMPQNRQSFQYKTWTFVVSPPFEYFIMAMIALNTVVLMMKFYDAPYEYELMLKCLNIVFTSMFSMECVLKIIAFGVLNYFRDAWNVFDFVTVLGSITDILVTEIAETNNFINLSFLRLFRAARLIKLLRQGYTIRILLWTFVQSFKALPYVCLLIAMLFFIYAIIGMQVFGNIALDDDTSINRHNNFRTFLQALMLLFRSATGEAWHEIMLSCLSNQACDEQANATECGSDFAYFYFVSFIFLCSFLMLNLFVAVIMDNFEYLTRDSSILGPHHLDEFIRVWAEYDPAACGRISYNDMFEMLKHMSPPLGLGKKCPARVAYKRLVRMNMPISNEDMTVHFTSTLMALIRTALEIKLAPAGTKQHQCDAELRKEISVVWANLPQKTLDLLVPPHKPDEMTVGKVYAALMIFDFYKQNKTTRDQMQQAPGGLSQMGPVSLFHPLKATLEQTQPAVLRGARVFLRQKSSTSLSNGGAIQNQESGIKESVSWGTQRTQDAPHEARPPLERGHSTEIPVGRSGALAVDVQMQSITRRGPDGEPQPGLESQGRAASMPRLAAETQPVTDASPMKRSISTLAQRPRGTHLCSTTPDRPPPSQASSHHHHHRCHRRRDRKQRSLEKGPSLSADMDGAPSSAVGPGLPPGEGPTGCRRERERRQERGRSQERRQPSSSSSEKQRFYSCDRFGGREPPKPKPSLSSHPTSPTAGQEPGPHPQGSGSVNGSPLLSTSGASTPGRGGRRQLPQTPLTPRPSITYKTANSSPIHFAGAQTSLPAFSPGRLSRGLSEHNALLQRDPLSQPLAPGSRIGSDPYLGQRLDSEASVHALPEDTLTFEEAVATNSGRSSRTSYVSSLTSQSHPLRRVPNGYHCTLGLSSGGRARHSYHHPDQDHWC
T1 sequence (P54284 whole entry partner): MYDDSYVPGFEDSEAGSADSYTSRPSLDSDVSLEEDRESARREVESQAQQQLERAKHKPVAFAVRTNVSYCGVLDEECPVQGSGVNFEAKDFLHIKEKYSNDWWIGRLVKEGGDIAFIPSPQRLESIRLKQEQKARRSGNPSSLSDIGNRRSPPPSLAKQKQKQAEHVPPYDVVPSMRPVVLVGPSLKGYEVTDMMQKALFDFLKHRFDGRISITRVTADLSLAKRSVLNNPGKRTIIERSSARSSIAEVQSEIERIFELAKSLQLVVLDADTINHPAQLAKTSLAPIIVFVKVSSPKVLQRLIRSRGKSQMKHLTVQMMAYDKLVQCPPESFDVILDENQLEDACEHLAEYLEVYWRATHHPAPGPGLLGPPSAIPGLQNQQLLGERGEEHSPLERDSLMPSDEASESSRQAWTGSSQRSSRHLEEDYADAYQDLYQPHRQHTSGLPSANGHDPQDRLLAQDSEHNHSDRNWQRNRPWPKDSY
T1 sequence (P54289 25-946 partner limits assumed): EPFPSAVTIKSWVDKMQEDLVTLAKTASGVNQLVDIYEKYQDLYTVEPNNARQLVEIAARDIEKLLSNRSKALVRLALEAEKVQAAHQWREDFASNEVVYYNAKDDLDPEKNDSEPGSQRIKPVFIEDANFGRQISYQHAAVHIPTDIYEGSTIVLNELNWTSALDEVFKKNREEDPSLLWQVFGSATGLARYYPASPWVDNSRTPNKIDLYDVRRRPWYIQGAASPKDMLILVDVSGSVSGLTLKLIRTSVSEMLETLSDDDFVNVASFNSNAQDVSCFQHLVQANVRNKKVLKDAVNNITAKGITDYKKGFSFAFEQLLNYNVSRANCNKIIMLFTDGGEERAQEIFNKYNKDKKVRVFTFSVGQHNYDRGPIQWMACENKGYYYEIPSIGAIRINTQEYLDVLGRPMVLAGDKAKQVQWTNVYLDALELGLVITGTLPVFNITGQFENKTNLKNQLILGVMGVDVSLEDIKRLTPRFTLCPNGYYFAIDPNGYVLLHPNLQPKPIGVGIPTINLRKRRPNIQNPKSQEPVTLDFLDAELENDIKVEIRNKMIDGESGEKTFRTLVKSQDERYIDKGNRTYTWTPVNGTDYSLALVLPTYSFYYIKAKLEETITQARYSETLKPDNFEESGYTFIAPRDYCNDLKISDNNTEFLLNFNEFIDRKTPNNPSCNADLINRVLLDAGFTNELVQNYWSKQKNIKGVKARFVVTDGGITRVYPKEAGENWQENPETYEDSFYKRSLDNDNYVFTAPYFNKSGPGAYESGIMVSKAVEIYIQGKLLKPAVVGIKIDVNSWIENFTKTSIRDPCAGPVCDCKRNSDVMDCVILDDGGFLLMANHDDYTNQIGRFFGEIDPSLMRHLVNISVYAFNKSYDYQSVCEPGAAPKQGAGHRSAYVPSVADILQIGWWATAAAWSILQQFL
T1 sequence (P54289 947-1103 partner limits assumed): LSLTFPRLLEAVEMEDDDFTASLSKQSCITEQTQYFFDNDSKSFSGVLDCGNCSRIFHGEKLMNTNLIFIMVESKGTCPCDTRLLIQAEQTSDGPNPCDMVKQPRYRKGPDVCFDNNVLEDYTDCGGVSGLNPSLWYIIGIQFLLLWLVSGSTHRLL

As usually defined, the IC50 is the point on the concentration scale where inhibition reaches its midpoint. As for `CCN(CC)S(=O)(=O)c1ccc2oc(C(=O)NC3CCCC3)c(C)c2c1` [compound 87], the IC50 under setting [1] is under 5 µM.

`CCOC(=O)N1CCN(C(=O)c2oc3ccc(S(=O)(=O)N4CCC(C)CC4)cc3c2C)CC1` [compound 88]: under setting [1], the IC50 is under 5 µM.

`Cc1c(C(=O)N(C)Cc2ccccc2)oc2ccc(S(=O)(=O)N3CC(C)CC(C)C3)cc12` (centres unmarked) [compound 89]: the IC50 was under 5 µM.

`CC1CCN(S(=O)(=O)c2ccc3oc(C(=O)NCCCc4ccccc4)cc3c2)CC1` [compound 90]: the IC50 under setting [1] was under 5 µM.

Take `CC1CC(C)CN(S(=O)(=O)c2ccc3[nH]c(C(=O)N4CCN(C)CC4)cc3c2)C1` (centres unmarked) [compound 91]: the IC50 under setting [1] is 5 to 20 µM.

With `CCN(CC)C(=O)c1oc2ccc(S(=O)(=O)N3CCCCCC3)cc2c1C` [compound 92], the IC50 under setting [1] lay within 5 to 20 µM.

In the case of `Cc1c(C(=O)N(C)Cc2ccccc2)oc2ccc(S(=O)(=O)N3CCCCC3)cc12` [compound 93], the IC50 under setting [1] is under 5 µM.

On to `Cc1c(C(=O)NCCCc2ccccc2)oc2ccc(S(=O)(=O)N3CCCCCC3)cc12` [compound 94], for which the 50% inhibitory concentration (IC50) under setting [1] was 5 to 20 µM.

Regarding `CCCCN(C)C(=O)c1oc2ccc(S(=O)(=O)N(CC)CC)cc2c1C` [compound 95], the IC50 under setting [1] lay in the range of 5 to 20 µM.

Consider `O=C(c1cc2cc(S(=O)(=O)N3CCCCCC3)ccc2o1)N1CCCCC1` [compound 96], for which, under setting [1], the IC50 lay within 5 to 20 µM.

`CC1CCN(S(=O)(=O)c2ccc3oc(C(=O)NCCc4ccccc4)cc3c2)CC1` [compound 97]: the IC50 under setting [1] fell in the range of 5 to 20 µM.

As to `CC1CCN(S(=O)(=O)c2ccc3[nH]c(C(=O)NCCCc4ccccc4)cc3c2)CC1` [compound 98], under setting [1], the half-inhibitory concentration (IC50) is under 5 µM.

For the molecule `CC1CC(C)CN(S(=O)(=O)c2ccc3oc(C(=O)N4CCCCC4)cc3c2)C1` (centres unmarked) [compound 100], the IC50 under setting [1] is under 5 µM.

On to `CC1CCN(S(=O)(=O)c2ccc3[nH]c(C(=O)N4CCCC(C)C4)cc3c2)CC1` (centres unmarked) [compound 101], for which the half-inhibitory concentration (IC50) under setting [1] was under 5 µM.

Regarding `Cc1c(C(=O)N2CCCC(C)C2)oc2ccc(S(=O)(=O)N3CCCCCC3)cc12` (centres unmarked) [compound 102], under setting [1], the IC50 is under 5 µM.

Regarding `Cc1c(C(=O)N2CCC(C)CC2)[nH]c2ccc(S(=O)(=O)N3CC(C)CC(C)C3)cc12` (centres unmarked) [compound 103], the IC50 under setting [1] was under 5 µM.

As to `CC1CCN(S(=O)(=O)c2ccc3[nH]c(C(=O)N4CCCC4)cc3c2)CC1` [compound 104], under setting [1], the IC50 is 5 to 20 µM.

On to `O=C(NC1CC1)c1cc2cc(N(CC3CC3)S(=O)(=O)c3ccccc3)ccc2[nH]1` [compound 105], for which the IC50 under setting [1] is 5 to 20 µM.

As for `CC1CCN(S(=O)(=O)c2ccc3oc(C(=O)N4CCC5(CC4)OCCO5)cc3c2)CC1` [compound 106], the IC50 was under 20 µM.

On to `CC1CC(C)CN(S(=O)(=O)c2ccc3c(c2)cc(C(=O)N2CCCCC2)n3S(=O)(=O)c2ccc(F)cc2)C1` (centres unmarked) [compound 107], for which the IC50 under setting [1] is under 5 µM.

In the case of `CC1CCN(S(=O)(=O)c2ccc3[nH]c(CNC4CC4)cc3c2)CC1` [compound 108], the IC50 under setting [1] was under 5 µM.

Take `Cc1c(C(=O)NC2CCCc3ccccc32)oc2ccc(S(=O)(=O)N3CCOCC3)cc12` (centres unmarked) [compound 109]: under setting [1], the IC50 is under 20 µM.

With `Cc1c(C(=O)NC(C)C)oc2ccc(S(=O)(=O)N3CCCCCC3)cc12` [compound 110], the IC50 under setting [1] is 5 to 20 µM.

As for `CC1CCN(S(=O)(=O)c2ccc3oc(C(=O)NCC4CCOCC4)cc3c2)CC1` [compound 111], the IC50 under setting [1] fell in the range of 5 to 20 µM.

In the case of `CCN(CC)S(=O)(=O)c1ccc2oc(C(=O)N3CCCCC3C)c(C)c2c1` (centres unmarked) [compound 112], the IC50 under setting [1] was in the range of 5 to 20 µM.

On to `CCCCN(C)C(=O)c1cc2cc(S(=O)(=O)N3CCCCCC3)ccc2o1` [compound 113], for which, under setting [1], the IC50 was under 5 µM.

Take `Cc1c(C(=O)NCCN2CCOCC2)oc2ccc(S(=O)(=O)N3CCCCCC3)cc12` [compound 114]: the IC50 under setting [1] was 5 to 20 µM.

As to `COc1ccc(NS(=O)(=O)c2ccc3oc(C(=O)NC4CC4)c(C)c3c2)cc1` [compound 115], the IC50 under setting [1] is 5 to 20 µM.

In the case of `Cc1c(C(=O)NC(C)C)[nH]c2ccc(S(=O)(=O)N3CCC(C)CC3)cc12` [compound 116], under setting [1], the half-inhibitory concentration (IC50) is 5 to 20 µM.

With `CCCCN(C)C(=O)c1[nH]c2ccc(S(=O)(=O)N3CCC(C)CC3)cc2c1C` [compound 117], under setting [1], the IC50 is under 5 µM.

Regarding `Cc1c(C(=O)NCc2ccccc2)oc2ccc(S(=O)(=O)N3CCC4(CC3)OCCO4)cc12` [compound 118], the IC50 under setting [1] was under 20 µM.

For the molecule `CC1CCN(S(=O)(=O)c2ccc3oc(C(=O)NC4CCCC4)cc3c2)CC1` [compound 119], the IC50 under setting [1] was under 5 µM.

Turning to `Cc1c(C(=O)NCc2ccccc2)[nH]c2ccc(S(=O)(=O)N3CCC(C)CC3)cc12` [compound 120], under setting [1], the IC50 is under 5 µM.

Take `CC1CCN(S(=O)(=O)c2ccc3[nH]c(CN4CCN(C)CC4)cc3c2)CC1` [compound 121]: the IC50 under setting [1] was 5 to 20 µM.

With `CC1CC(C)CN(S(=O)(=O)c2ccc3oc(C(=O)NC4CCCC4)cc3c2)C1` (centres unmarked) [compound 122], under setting [1], the IC50 is under 5 µM.

`Cc1c(C(=O)NC2CCCCC2C)oc2ccc(S(=O)(=O)N3CCOCC3)cc12` (centres unmarked) [compound 123]: the IC50 under setting [1] lay within 5 to 20 µM.

`Cc1c(C(=O)N2CC(C)CC(C)C2)oc2ccc(S(=O)(=O)N3CCCCC3)cc12` (centres unmarked) [compound 124]: the IC50 under setting [1] was in the range of 5 to 20 µM.

On to `CC1CC(C)CN(S(=O)(=O)c2ccc3[nH]c(C(=O)N4CCCCCC4)cc3c2)C1` (centres unmarked) [compound 126], for which the IC50 under setting [1] is under 5 µM.

Regarding `Cc1c(C(=O)N2CC(C)CC(C)C2)[nH]c2ccc(S(=O)(=O)N3CCC(C)CC3)cc12` (centres unmarked) [compound 127], under setting [1], the IC50 is 5 to 20 µM.

For the molecule `Cc1c(C(=O)N2CCC(C)CC2)oc2ccc(S(=O)(=O)N3CCC(C)CC3)cc12` [compound 128], under setting [1], the IC50 is 5 to 20 µM.

As to `Cc1c(C(=O)NCCN2CCOCC2)oc2ccc(S(=O)(=O)N3CCC(C)CC3)cc12` [compound 129], the IC50 under setting [1] lay within 5 to 20 µM.

In the case of `CCNC(=O)c1cc2cc(S(=O)(=O)N3CCC(C)CC3)ccc2[nH]1` [compound 130], the IC50 under setting [1] is under 5 µM.

Consider `CCNC(=O)c1cc2cc(S(=O)(=O)N3CCC(C)CC3)ccc2o1` [compound 131], for which, under setting [1], the IC50 was under 5 µM.

Take `Cc1c(C(=O)NC2CCCCC2C)oc2ccc(S(=O)(=O)N3CCCC3)cc12` (centres unmarked) [compound 132]: under setting [1], the IC50 is under 20 µM.

With `Cc1c(C(=O)NC2CC2)oc2ccc(S(=O)(=O)Nc3nncs3)cc12` [compound 133], under setting [1], the IC50 is under 20 µM.

On to `Cc1c(C(=O)NCCCN2CCCC2=O)oc2ccc(S(=O)(=O)N3CC(C)CC(C)C3)cc12` (centres unmarked) [compound 134], for which the IC50 under setting [1] lay within 5 to 20 µM.

`CN1CCN(C(=O)c2cc3cc(S(=O)(=O)N4CCCCCC4)ccc3n2S(=O)(=O)c2ccccc2)CC1` [compound 135]: under setting [1], the IC50 was 5 to 20 µM.

In the case of `Cc1c(C(=O)NCCc2ccccc2)oc2ccc(S(=O)(=O)N3CCC4(CC3)OCCO4)cc12` [compound 136], the IC50 under setting [1] lay within 5 to 20 µM.

As to `CC1CC(C)CN(S(=O)(=O)c2ccc3oc(C(=O)N(C(C)C)C(C)C)cc3c2)C1` (centres unmarked) [compound 137], the IC50 under setting [1] was under 5 µM.

With `CC1CCN(S(=O)(=O)c2ccc3oc(C(=O)N(C(C)C)C(C)C)cc3c2)CC1` [compound 138], the half-inhibitory concentration (IC50) under setting [1] was under 5 µM.

For the molecule `CC1CCN(S(=O)(=O)c2ccc3cc(C(=O)NC4CC4)[nH]c3c2)CC1` [compound 139], the IC50 under setting [1] is 5 to 20 µM.

Take `CC1CCN(S(=O)(=O)c2ccc3[nH]c(C(=O)N(C(C)C)C(C)C)cc3c2)CC1` [compound 140]: the IC50 under setting [1] is under 5 µM.

`CCCCN(C)C(=O)c1cc2cc(S(=O)(=O)N3CCC(C)CC3)ccc2[nH]1` [compound 141]: the IC50 under setting [1] is under 5 µM.

Regarding `CC1CCN(S(=O)(=O)c2ccc3[nH]c(C(=O)NC(C)C)cc3c2)CC1` [compound 142], the IC50 under setting [1] is under 5 µM.

On to `CC1CC(C)CN(S(=O)(=O)c2ccc3[nH]c(C(=O)N4CCCC4)cc3c2)C1` (centres unmarked) [compound 143], for which the IC50 under setting [1] lay in the range of 5 to 20 µM.

As to `Cc1c(C(=O)N2CC(C)CC(C)C2)oc2ccc(S(=O)(=O)N3CCOCC3)cc12` (centres unmarked) [compound 144], the IC50 under setting [1] was 5 to 20 µM.
